Test results from PubChem BioAssay (NCI).
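96-well plates; 48 h exposure; 5 concentrations. Endpoints by linear interpolation between flanking doses. Not reached: highest tested concentration assigned. Abbreviation: GI50, concentration required for 50% inhibition of growth. TGI: total growth inhibition.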

Columns and labels:
Assay in all cases: NCI-60 cell line screen, 48 h
[1] = system: IGROV1 ovarian
[2] = system: 786-0 renal
[3] = system: SK-MEL-5 melanoma
[4] = system: EKVX NSCLC
[5] = system: SF-539 CNS
[6] = system: SF-268 CNS
[7] = system: HOP-92 NSCLC
[8] = system: MCF7 breast
[9] = system: CAKI-1 renal
[10] = system: SNB-75 CNS

Row | SMILES | TGI [1] [µM] | TGI [2] [µM] | TGI [3] [µM] | TGI [4] [µM] | TGI [5] [µM] | TGI [6] [µM] | TGI [7] [µM] | TGI [8] [µM] | TGI [9] [µM] | TGI [10] [µM] | GI50 [1] [µM] | GI50 [2] [µM] | GI50 [3] [µM] | GI50 [4] [µM] | GI50 [5] [µM] | GI50 [6] [µM] | GI50 [7] [µM] | GI50 [8] [µM] | GI50 [9] [µM] | GI50 [10] [µM]
1 | O=C1OC(c2ccc(O)c(-c3ccccc3)c2)(c2ccc(O)c(-c3ccccc3)c2)c2c(Cl)c(Cl)c(Cl)c(Cl)c21 | > 100 | > 100 | > 100 | > 100 | > 100 | > 100 | > 100 | > 100 | > 100 | > 100 | – | – | – | – | – | – | – | – | – | –
2 | CN1CCN(c2ccc3nc(-c4cc(C(C)(C)C)c(O)c(C(C)(C)C)c4)[nH]c3c2)CC1 | 12.6 | 3.5 | 3.17 | 16.5 | 3.35 | 7.14 | 6.4 | 4.14 | 3.49 | 3.65 | 3.65 | 1.82 | 1.76 | 4.3 | 1.79 | 2.62 | 1.82 | 1.8 | 1.75 | 1.42
3 | C#C[C@]1(O)CC[C@H]2[C@@H]3CC=C4c5sc(N=C(N)N)nc5CC[C@]4(C)[C@H]3CC[C@@]21C | 2.41 | 1.81 | 1.66 | 2.85 | 1.12 | 2.75 | 2.37 | 1.88 | 1.82 | 1.32 | 1.03 | 0.453 | 0.628 | 1.25 | 0.233 | 0.959 | 0.842 | 0.391 | 0.615 | 0.152
4 | COc1ccc(-c2n[nH]nc2-c2csc3ccccc23)cc1OC | > 100 | 22.6 | 8.79 | > 100 | 5.79 | 41.8 | 6.69 | 15.1 | 34.2 | – | 4.21 | 3.26 | 2.83 | 3.42 | 1.84 | 3.69 | 0.922 | 1.45 | 3.69 | –
5 | CS(=O)(=O)CCNCc1ccc(-c2ccc3ncnc(Nc4ccc(OCc5cccc(C(F)(F)F)c5)cc4)c3c2)o1 | > 17.5 | 8.85 | > 13.5 | > 23.3 | 9.75 | 9.82 | 7.81 | > 15 | > 19.8 | > 21.1 | 5.46 | 4.61 | 6.05 | 6.03 | 4.66 | 4.54 | 2.6 | 6.38 | 5.57 | 8.21
6 | CCCCCCCCCCCCCCCc1cc(O)ccc1N | 6.61 | 37.2 | > 100 | > 100 | 2.19 | 23.9 | 93.7 | > 100 | 7.06 | 68.9 | 0.416 | 2.77 | > 100 | > 50.6 | 0.702 | 4.33 | 12.4 | 23 | 1.72 | 4.76
7 | Cn1c(COC(=O)N2CCCCC2)nc2c(N3CCOCC3)nc(-c3ccccc3)nc21 | 1.81 | 2 | 2.79 | 2.65 | 2.61 | 2.71 | 1.93 | 1.79 | 1.51 | 2.18 | 0.534 | 0.732 | 1.47 | 1.22 | 1.33 | 1.33 | 0.492 | 0.378 | 0.354 | 0.817
8 | O=C(Nc1cc(C(F)(F)F)ccc1F)Nc1n[nH]c2ccccc12 | > 100 | > 100 | > 100 | > 100 | > 100 | > 100 | > 100 | > 100 | > 100 | > 100 | 0.758 | > 100 | > 100 | > 100 | > 100 | > 100 | > 100 | 18.2 | > 100 | 40.1
9 | COc1cc(CSc2nc3ccc(C)cc3c(=O)n2Cc2ccccc2)cc(OC)c1OC | > 100 | 65.6 | 12.8 | – | 8.32 | > 100 | 7.42 | 22.8 | > 100 | 4.21 | 3.47 | 7.49 | 1.45 | – | 2.26 | 5.01 | 1.44 | 0.587 | 2.48 | 0.804
10 | CC(ONC(=O)c1cc(C(F)(F)F)cc(C(F)(F)F)c1)C(=O)Nc1ccc(Cl)cc1 (centres undefined) | > 52 | 22 | 7.86 | > 63 | 19 | > 67.9 | 7.21 | 16.5 | > 76.6 | 70.7 | 8.86 | 5.61 | 2.79 | 4.46 | 4.82 | 5.2 | 2.77 | 3.38 | 20.3 | 15
11 | O=C(O)C1C2CC3C(OC(=O)C31)C2Br (centres undefined) | > 100 | > 100 | > 100 | > 100 | > 100 | > 100 | > 100 | > 100 | > 100 | > 100 | – | – | – | – | – | – | – | – | – | –
12 | CCC(Sc1nnc2c3ccccc3n(CC)c2n1)C(=O)Nc1ccccc1OC (centres undefined) | > 100 | > 100 | > 100 | > 30.1 | > 100 | > 100 | > 100 | > 100 | 5.32 | > 100 | > 93.8 | > 100 | 60.8 | 1.08 | > 100 | > 100 | 65.5 | > 89.9 | 0.76 | 10.8
13 | O=C1C=C(Nc2ccccc2C(=O)CC(=O)C(=O)Nc2cccc(C(F)(F)F)c2)c2ccccc2C1=O | > 100 | > 97.2 | 30.8 | 98.7 | 49 | 73.3 | > 94.3 | 28.9 | 99.8 | > 96.9 | – | – | – | – | – | – | – | – | – | –
14 | COc1cc(OC)c2c(=O)c(O)c(-c3ccc(OC)c(OC)c3)oc2c1 | > 31.6 | > 100 | > 100 | > 100 | > 100 | > 31.6 | 20.7 | > 31.6 | > 31.4 | > 100 | – | – | – | – | – | – | – | – | – | –
15 | COc1ccc(C(O)CNC(=O)c2ccccc2)cc1 (centres undefined) | > 100 | > 100 | > 100 | > 100 | > 100 | > 100 | > 100 | > 100 | > 100 | > 100 | – | – | – | – | – | – | – | – | – | –
16 | COC(=O)CCC(=O)c1c(C)[nH]c(/C=C2\N=C(c3ccc[nH]3)C=C2OC)c1C | 1.6 | 1.82 | 1.71 | 2.94 | 3.03 | 3.1 | 1.55 | 2.03 | 2.95 | 3.51 | 0.365 | 0.552 | 0.567 | 1.1 | 1.18 | 1.03 | 0.486 | 0.567 | 0.869 | 0.971
17 | O=S1(=O)CCN(Cc2ccccn2)CC1 | > 100 | > 100 | > 100 | > 100 | > 100 | > 100 | > 100 | > 100 | > 100 | > 100 | – | – | – | – | – | – | – | – | – | –
18 | [Cu+2].[O-]c1ccc2ccccc2c1N=Nc1ccccc1.[O-]c1ccc2ccccc2c1N=Nc1ccccc1 | > 100 | > 100 | > 100 | > 100 | > 100 | > 100 | > 100 | > 100 | > 100 | > 100 | – | 72.7 | – | > 100 | – | > 100 | – | – | – | –
19 | CO[C@@H]1[C@@H](OC2OC(C)C(OC3CC(C)(O)C(OC(=O)CC(C)C)C(C)O3)C(N(C)C)C2O)[C@@H](CC=O)C[C@@H](C)C(=O)/C=C/C2O[C@H]2C[C@@H](C)OC(=O)C[C@H]1OC(C)=O (some centres undefined) | 61 | 50.2 | 32.9 | > 100 | 38.5 | > 100 | 27 | 30.7 | – | > 100 | – | – | – | – | – | – | – | – | – | –
20 | O=C1/C(=C/c2ccccc2Cl)N=C(c2ccccc2)N1Cc1ccco1 | – | > 100 | 36.3 | > 100 | > 100 | > 100 | > 100 | > 100 | > 100 | > 100 | – | 34.7 | 17.9 | 54 | 63.8 | 50.2 | 51.9 | 18.3 | 94.3 | 50.3
21 | CCN(CC)c1ccc2c(c1)Oc1nc(N)c(C#N)c(N)c1C2Sc1ccc(SC)cc1 (centres undefined) | 3.37 | 3.19 | 3.01 | 1.97 | 3 | 3.44 | 3.43 | 3.65 | – | 3.17 | 1.57 | 1.75 | 1.65 | 0.528 | 1.64 | 1.69 | 1.72 | 1.6 | – | 1.56
